One experiment concerns U87MG xenografts. Description: U87MG s.c. xenografts in SCID mice, compound 102 and TMZ. Format: in vivo. On the procedure:
(§1) 5×10^6 U87MG cells were inoculated s.c. into each flank of 20 SCID mice. When the xenografts were 0.5+/−0.1 cm (day 0), 5 animals each received i.p. vehicle alone days 1-12 (50% DMSO/H20); compound 102 alone at 1.5 mg/kg days 1-3, 5-7, & 9-11; TMZ alone at 80 mg/kg days 4, 8, 12; or both drugs at the same doses and schedules. If xenografts reached 1800 mm^3, animals were sacrificed. […] B, Survival curve combining the data from the study shown in FIG. 12A, with a second identical study involving a total of 10 animals with two xenografts each. Disease-free survival was defined as no recurrence of either xenografts. […] As in 12A, except that xenografts of SH-SY5Y cells were implanted in one flank only and animals were treated with one additional cycle of drugs, i.e., compound 102 on days 13-15, TMZ, on day 16, and compound 102 plus TMZ on the same schedules. […] E, Western blots of U87 cells in culture 24 hours after exposure to compound 102 at 2.5 uM, TMZ at 25 uM or DOX at 2 uM, and compound 102 plus TMZ or DOX. F, Western blots of U373 cells 24 hours after exposure to compound 102 at 2.5 uM, doxorubicin at 2 uM, and both drugs. G, Western blots of U373 cells 24 hours after exposure to TMZ at 25 uM, okadaic acid at 2 nM, and both drugs.
To determine the impact of altering DNA-damage defense mechanisms by inhibiting PP2A on the efficacy of cytotoxic chemotherapy, the effects of compound 102 combined with TMZ, a non-specific DNA-methylating drug, routinely used for the palliative treatment of GBM patients (Prados et al, 2008), were studied. SCID mice bearing s.c. xenografts of either the GBM line U87MG or the neuroblastoma line SH-SY5Y were treated with vehicle alone, compound 102 alone, TMZ alone, or both drugs at the same doses and schedules as when given alone.

In the next experiment the test system is U87 cells. The experiment is described as follows: U87 GBM cell growth in vitro, viable cells counted. Format: cell-based. The conditions noted are these: Homo sapiens, U-87 MG, read-out: IC50 inhibition of GBM cell growth. On the procedure: FIG. 6: Effect of Compound 102 on U87 Cells In Vitro at 1 uM; 2 uM; 5 uM; and 10 uM.
Viable cells were counted (mean and s.d.; n=3; Coulter particle counter).
Recent work led to the discovery that treatment with the compound, compound 100, and several homologs inhibit the serine/threonine protein phosphatases PP2A (FIG. 1). Compound 102 inhibits PP2A (IC50=˜0.4 μM) more potently than PP1 (IC50=˜80 μM) (FIG. 2). Associated with their inhibition of PP2A, Compound 100 and homologs inhibit a variety of human cancer cell types growing in cell culture and growing in vivo as xenografts implanted subcutaneously in SCID mice (FIG. 3 and FIG. 4). […] Death of these cancer cells is associated with profound disruption of microtubular structures. Such patterns of disordered microtubules during mitosis have been noted after exposure of cancer cells to spindle toxins include such vincristine, vinblastine, taxol, taxotere, ionizing radiation, and DNA damaging agents including anthracyclines and the platinum based compounds. The morphologic appearance of cells displaying these characteristics has been called the mitotic catastrophe phenotype (Castedo et al 2004).

The test system of another experiment is NB xenografts. The experiment is described as follows: Histologic examination of xenografts 24 hours after single i.p. injection. The class given is in vivo, SCID mice. The conditions noted are these: compound 102 1.5 mg/kg, TMZ 80 mg/kg.
The subject of another experiment is U87MG cells. The experiment is described as follows: Cellular and molecular changes in U87MG cells (Western blots, IFS). Format: cell-based, human. The method, then:
D, Western blots of U87 lysates: TCTP, pPlk (Tre-210), total Plk, and β-actin. E, IFS of TCTP in U87 cells, F, Western blots p53 (ser-15), pMDM2 (ser-166), and β-actin and G, IFS of p53 (ser-15).
as §1
TCTP is an abundant, highly conserved, multifunctional protein that binds to and stabilizes microtubules before and after mitosis and also exerts potent anti-apoptotic activity (Bommer and Thiele, 2004; Yarm, 2002; Susini et al, 2008) (FIG. 11E).
[…] Akt-1 activation, however, may be anti- or proapoptotic depending on the context of cell signaling (Andrabi et al, 2007).
The effects of compound 102, TMZ, doxorubicin (DOX), a widely used anti-cancer drug that disrupts DNA replication, compound 102 plus TMZ, and compound 102 plus DOX on the amount of pAkt, p53 and MDM2 in U87MG, a cell line with wild-type p53, and in U373, a cell line with mutant p53 (Short et al, 2007) were assessed by Western blots.
On the technique in general: Immunoblotting shows a protein as a band on a membrane.

Where [1] appears, read: U87MG, 24 hours, compound 102 2.5 uM, TMZ 25 uM, DOX 2 uM.

Molecules are shown by their SMILES. Entries after “also recorded” stand apart in the source; their conditions may differ.

As usually defined, the IC50 is the concentration that inhibits the measured activity by half.

As to `CC(C)(C)OC(=O)N1CCN(C(=O)C2C(C(=O)O)[C@H]3CC[C@@H]2O3)CC1` (stereo partly drawn) [Compound 102], the U87MG xenograft growth/regression entry in the experiment on U87MG xenografts (compound 102 1.5 mg/kg i.p. days 1-3, 5-7, 9-11, TMZ 80 mg/kg days 4, 8, 12) is “minimally delayed growth; also recorded: slowed growth”. The “time of sacrifice (xenografts reached 1800 mm^3)” value with U87MG xenografts (same doses and schedules) was 4-5 week. Moreover, the half-inhibitory concentration (IC50) in the experiment with U87 cells was around 4 µM. The “cells with pyknotic nuclei” value with NB xenografts was 50 % of cells. Besides, the “intracellular levels of p53 by immunofluorescence staining” value in the experiment on U87MG cells (24 hour, compound 102 2.5 uM, TMZ 25 uM) is on record as “reduction”. Further, in the experiment with U87MG cells (U87MG, 2.5 uM, 24 hour), the TCTP entry is reported as “marked decrease”; the “microtubule and mitotic morphology” value was “disordered microtubules and abnormal mitotic figures”; the pPlk-1 entry is reported as “increased”; the “phosphorylated MDM2” value was “increased”. Moreover, in the experiment on U87MG cells (setting [1]), the MDM2 result is reported as “increased”, the p53 result is on record as “decreased; also recorded: eliminated” and the pAkt-1 entry is “increased”.
